In patent US11235074B2, “Contrast agents for magnetic resonance imaging” (Duke University, priority 2015, dated 2022):
Where two headings read alike, the source gives them in different places.

Tests used:
[1] = cited from earlier work
[2] = cited from earlier work; remark: listed apart in the source
[3] = system: brain of normal C57 black mouse; assay: In vivo ascorbate T2 contrast changes in normal mouse brain; conditions: 2 g/kg i.v., normal C57 mice, FIG. 9B
Procedure: Color-lute maps of signal intensity are not subtracted from the pre-dose scan and therefore show the expected decreases in T2 signal over time, maximized between 30-60 min in normal C57 mice.

[4] = In vitro phantom quantitative T2 mapping (spin-spin relaxation MRI contrast) at 7 T
Procedure: Data are provided from quantitative T2 mapping at 7 T using a RARE FSE protocol with at least 6 different echo times, at solute concentrations of 10 and 20 mM.

[5] = cited from earlier work; remark: listed apart in the source
[6] = system: whole brains of guinea pigs; assay: T2 contrast changes in guinea pig brain after i.v. ascorbate formulations, 7 T; type: in vivo; conditions: 2 g/kg i.v. over 60 minutes, nearly every time point
Procedure: MRI was performed for 90 minutes.

Row | Compound | plasma concentration achievable ([1]; administered intravenously) | plasma concentration ([1]; oral ascorbate, doses more than 100 times the recommended daily allowance) | excretion half-life ([1]; urinary excretion of concentrations over the renal re-absorption threshold) | H2O2 concentration in brain and tumors in vivo following parenteral ascorbate ([2]; brain and tumors) | intracellular concentration ([2]; tumors, brain cells and some other tissues) | time of maximal decrease in T2 signal [3] | change in T2 relaxation ([4]; 10 mM ascorbate with physiological glucose (5 mM) or HCO3- (25 mM), FIG. 5) | pH at which T2 effect is maximized ([4]; FIG. 3C) | lowest concentration with statistically significant negative T2 contrast (signal loss) ([4]; vs phosphate-buffered saline control, conventional FSE acquisition, FIG. 3A) | pKA ([5]; disproportionation reaction at equilibrium) | pKA ([5]; hydroxyl group at the 4 position) | fraction present as the mono anion ([5]; physiological pH (7.4)) | FSE T2 weighted signal intensity changes, comparison between formulations [6] | T2 contrast effect (T2 relaxation in ms) relative to meglumine or ascorbate alone ([4]; water, neutral pH, FIG. 3D)
1 | O=C1O[C@H]([C@@H](O)CO)C(O)=C1O [ascorbate, L-ascorbic acid] | ≥ 10000 µM | ≤ 200 µM | about 30 minutes | 100 to 200 µM | 10 to 30 mM | 30 to 60 min | 50% | 7.0-7.4 | 1 to 5 mM | 7.0 | 6.75 | 99% | – | –
2 | meglumine ascorbate | – | – | – | – | – | – | – | – | – | – | – | – | greater than those observed with sodium ascorbate (1) | approximately 4 times
